In US8273389B2, “Compositions comprising cinnamon oil (and/or its component cinnamaldehyde) and diallyl disulfide, their formulations, and methods of use” (Valent BioSciences Corporation, priority 2008, dated 2012):

Tested on: Meloidogyne incognita (Root-knot nematode)
Assay: Greenhouse pot test, root galling of cucumber seedlings by root-knot nematode
Format: in vivo
Details: 25 ml soil drench, 800 J2 per pot, rated after 12-15 days, 0 = no galls, 9 = heavy galling; for Average Gall Rating (0-9): Example 2, 300 ppm AI (combined total for mixtures), nematode control 9; for Gall Rating (0-9): Example 3, 300 ppm AI (combined total for mixture), nematode control 8.25
Description: Tests are conducted in 2″ pots containing 125 grams non-pasteurized 2:1 sand soil mix containing 2 cucumber seedlings at the 1st true leaf stage (var. Straight Eight). Each treatment consists of 4 replicate pots. Application of test materials is carried out by drenching each pot with 25 milliliters of an aqueous dispersion of the formulation being tested. Several hours after the test materials are applied, 800, second stage juveniles (J2) of freshly hatched Meloidogyne incognita (Root-knot nematode), are applied to each pot with the exception of the untreated control. The pots are maintained for 12-15 days at standard greenhouse temperature and lighting conditions and watered as needed for the duration of the test. At harvest, the soil is removed from the roots by rinsing the roots in water. The roots are then rated for galling on a scale from 0-9 where 0 represents no galls and 9 represents heavy galling.
Tests are conducted in 2″ pots, as explained in Example 2 above.

Row | Structure (SMILES) | Average Gall Rating (0-9) | Gall Rating (0-9)
1 | O=CC=Cc1ccccc1 [Cinnamaldehyde, cinnamaldehyde] | 7.75 | 9
2 | C=CCSSCC=C [Allyl disulfide (BAB-0294-75), diallyl disulfide] | 5 | 3.25
